Assays:
[1] = system: S. Infantis and the E. coli strains; test: Bacterial viability / growth in the conjugation experiments; assay type: cell-based, Salmonella enterica serovar Infantis; E. coli; details: 2% of the substance
[2] = system: pESI conjugation between S. Infantis 119944 (donor) and E. coli ORN172 (recipient); test: pESI conjugation (mating) experiments on LB agar plates; assay type: cell-based, Salmonella enterica serovar Infantis; E. coli; details: pESI transfer, LB agar plates supplemented with 2% (w/v) of the substance
Clostridium perfringens = details: varying concentrations; cited from earlier work

| SMILES | growth (rate) of S. Infantis and the E. coli strains [1] | conjugation frequency [2] | bacterial viability (Clostridium perfringens) |
| --- | --- | --- | --- |
| C[C@H](CCC(=O)O)[C@H]1CC[C@H]2[C@@H]3[C@H](O)C[C@@H]4C[C@H](O)CC[C@]4(C)[C@H]3CC[C@]12C [chenodeoxycholic acid] | inhibited the growth | transconjugants in the presence of these regents were not produced | – |
| C[C@H](CCC(=O)O)[C@H]1CC[C@H]2[C@@H]3[C@H](O)C[C@@H]4C[C@H](O)CC[C@]4(C)[C@H]3C[C@H](O)[C@]12C [cholic acid] | – | significant decrease | – |
| C[C@H](CCC(=O)NCC(=O)O)[C@H]1CC[C@H]2[C@@H]3[C@H](O)C[C@@H]4C[C@H](O)CC[C@]4(C)[C@H]3CC[C@]12C [glycine-conjugated chenodeoxycholic acid] | – | – | significantly reduced bacterial viability |
| NCC(=O)O [glycine] | inhibited the growth | transconjugants in the presence of these regents were not produced | – |
| C[C@H](CCC(=O)O)[C@H]1CC[C@H]2[C@@H]3CC[C@@H]4C[C@H](O)CC[C@]4(C)[C@H]3CC[C@]12C [lithocholic acid, 3α-hydroxy-5β-cholan-24-oic acid] | no effect on the growth rate | significant decrease | – |
| NCCS(=O)(=O)O [taurine, 2-aminoethanesulfonic acid] | no effect on the growth rate | inhibit conjugation to a lower degree | – |
| C[C@H](CCC(=O)NCCS(=O)(=O)O)[C@H]1CC[C@H]2[C@@H]3[C@H](O)C[C@@H]4C[C@H](O)CC[C@]4(C)[C@H]3CC[C@]12C [taurine-conjugated chenodeoxycholic acid] | – | – | significantly reduced bacterial viability |

From patent US11077123B2 (priority 2016, dated 2021)
